Source: patent US8748395B2, “Cell-permeable peptide inhibitors of the JNK signal transduction pathway” (Xigen Inflammation Ltd., priority 2006, dated 2014)
Square brackets hold non-standard residues; d marks the D form. Peptide text beside a SMILES is read from it.

Tests used:
[1] = test system: βTC-3 cells; assay: Inhibition of IL-1β induced pancreatic β-cell death by TAT-IB peptides; type: cell-based; settings: one single addition of peptide 1 μM, IL-1β every two days, 15 days
Experimental: We investigated the effects of the inventive L-TAT-IB(s) peptides on the promotion of β-cell apoptosis elicited by IL-1. PTC-3 cell cultures were incubated for 30 minutes with 1 μM of inventive L-TAT-IB1(s) peptides followed by 10 ng/mL of IL-1. A second addition of peptide (1 μM) was performed 24 hours later. Apoptotic cells were counted after two days of incubation with IL-1β using propidium iodide (red stained cell are dead cells) and Hoechst 33342 (blue stained cell are cells with intact plasma membrane) nuclear staining.
Long term inhibition of IL-1 induced cells death was examined by treating βTC-3 cells as described above, except that incubation of the cells with the peptides and IL-1β was sustained for 12 days. Additional peptides (1 μM) were added each day and additional IL-1β (10 ng/mL) was added every 2 days. […] Taken together, these experiments provide evidence that inventive TAT-IB(s) peptides are biologically active molecules able to prevent the effects of JNK signaling on cell fate.
Inhibition of IL-1β induced pancreatic β-cell death by the inventive D-TAT-IB1(s) peptide was analyzed. βTC-3 cells were incubated as described above for 30 minutes with one single addition of the indicated peptides (1, μM), then IL-1 (10 ng/ml) was added.
Apoptotic cells were then counted after two days of incubation with IL-1β by use of Propidium Iodide and Hoechst 33342 nuclear staining. A minimum of 1,000 cells were counted for each experiment. Standard Error of the Means (SEM) are indicated, n=5.
Long term inhibition of IL-1P induced cell-death by the D-TAT-IB1 peptide was also analyzed. βTC-3 cells were incubated as above for 30 minutes with one single addition of the indicated peptides (1 μM), then IL-1β (10 ng/ml) was added, followed by addition of the cytokine every two days. Apoptotic cells were then counted after 15 days of incubation with IL-1 by use of propidium iodide and Hoechst 33342 nuclear staining. […] A minimum of 1.000 cells were counted for each experiment.

[2] = test system: 12-days-old rats; assay: Neuroprotection against focal cerebral ischemia, permanent MCAO model; type: in vivo
Excerpt: Focal cerebral ischemia was induced in 12-days-old rats. Pups were anesthetized in an induction chamber with 2% isoflurane and during the operation anaesthesia was maintained using a mask under 2% isoflurane. MCAO was induced by electrocoagulating a main branch of the middle cerebral artery (MCA). Rats were placed on the right side, and an oblique dermal incision was made between the ear and eye. After excision of the temporal muscle, the cranial bone was removed from the frontal suture to a level below the zygomatic arch. […] The cranial skin incision was then closed. Rat pups were then placed in an incubator maintained at 37° C. until they awoke, and were then transferred to their mother.
6 hours later an inventive chimeric D-TAT-IB1(s) peptide according to SEQ ID NO: 11 was injected intraperitoneally. 24 hours after the coagulation, the rats were anesthetized with chloral hydrate and perfused through the ascending aorta with 4% paraformaldehyde in PBS. Brains were then removed and kept for 2 hours in the same fixative solution, and placed in a gradient of 30% sucrose in PBS for about 15 hours at 4° C. Brains were frozen in isopentane (−40° C.) and stored at −20° C. Coronal cryostat sections of 50 μm were collected on glass slides. The sections were stained with cresyl violet. Each tenth section was analyzed and the total volume of the lesion was calculated using the Neuroleucida programme. In the control group A, the mean lesion volume was 21.47 mm^3. […] A significant statistic difference is observed between group A and groups C, E and F (one-tailed t-test, p=0.030, p=0.002, p=0.001 respectively).

[3] = test system: endogenous JNK activity in HepG2 cells; assay: Inhibition of endogenous JNK activity in HepG2 cells, AlphaScreen all-in one well approach; type: cell-based
Experimental: HepG2 cells were seeded at 3'000 cells/well the day prior the experiment. Then, increasing concentrations of either interleukin-1β [IL-1β(ν)] or tumor necrosis factor α [TNFα(●)] (a) were added to activate JNK for 30 minutes. Cells were lysed in 20 mM Hepes, 0.5% Tween pH 7.4 and processed for AlphaScreen JNK. (b) Z′ for the JNK activity induced by 10 ng/ml IL-1β and measured in 384 wells/plate (n=96). (c) Inhibition of endogenous IL-1β-induced JNK activity with chemical JNK inhibitors [staurosporin (°) and SP600125 (●)]. (d) Effect of peptidic inhibitors L-TAT-IB1(s) according to SEQ ID NO: 9 [here abbreviated as L-JNKi (ν)) and D-TAT-IB1(s) according to SEQ ID NO: 11 (here abbreviated as D-JNKi (♦)) and JBDs (●) (corresponds to L-JNKI without the TAT sequence)] on IL-1α dependent JNK activity. All panels are representative of three independent experiments (n=3).
Methods: Alphascreen Kinase Assay
Principle: AlphaScreen is a non-radioactive bead-based technology used to study biomolecular interactions in a microplate format. The acronym ALPHA stands for Amplified Luminescence Proximity Homogenous Assay. […]
Kinase reagents (B-GST-cJun, anti P-cJun antibody and active JNK3) were first diluted in kinase buffer (20 mM Tris-HCl pH 7.6, 10 mM MgCl2, 1 mM DTT, 100 μM Na3VO4, 0.01% Tween-20) and added to wells (15 μl). […] AlphaScreen signal was analyzed directly on the Fusion or En Vision apparatus.

With `CC(C)C[C@@H](NC(=O)[C@@H](Cc1ccccc1)NC(=O)[C@H]1CCCN1C(=O)[C@@H](CCC(N)=O)NC(=O)[C@H](NC(=O)[C@H]1CCCN1C(=O)[C@@H](CCCNC(=N)N)NC(=O)[C@@H](CO)NC(=O)[C@@H](CCC(N)=O)NC(=O)[C@H](N)CC(=O)O)C(C)C)C(=O)N[C@H](CC(N)=O)C(=O)N[C@H](CC(C)C)C(=O)N[C@@H](C(=O)N[C@@H](C(=O)N1CCC[C@@H]1C(=O)N[C@H](CCCNC(=N)N)C(=O)N[C@H](CCCCN)C(=O)N1CCC[C@@H]1C(=O)N[C@H](CCCNC(=N)N)C(=O)N1CCC[C@@H]1C(=O)N1CCC[C@@H]1C(=O)N[C@H](CCCNC(=N)N)C(=O)N[C@H](CCCNC(=N)N)C(=O)N[C@H](CCCNC(=N)N)C(=O)N[C@H](CCC(N)=O)C(=O)N[C@H](CCCNC(=N)N)C(=O)N[C@H](CCCNC(=N)N)C(=O)N[C@H](CCCCN)C(=O)N[C@H](CCCCN)C(=O)N[C@H](CCCNC(=N)N)C(=O)NCC(=O)O)[C@H](C)O)[C@H](C)O` [D-TAT-IB1(s)] (H-[dD][dQ][dS][dR][dP][dV][dQ][dP][dF][dL][dN][dL][dT][dT][dP][dR][dK][dP][dR][dP][dP][dR][dR][dR][dQ][dR][dR][dK][dK][dR]G-OH) the “long term (15 day) protection against IL-1β induced cell death” value [1] was “able to confer long term (15 day) protection”, the “cerebral protection compared to saline group” value ([2]; dose of 1 mg/kg, 0.003 mg/kg and 0.0003) was “total sample was not large enough to reach a significant difference” and the cerebral protection ([2]; dose of 11 mg/kg, 3 mg/kg, 0.3 mg/kg and 0.03 mg/kg i.p.) was “contributes to a cerebral protection”. For the same molecule, the “dose at which the best protection is observed” value ([2]; i.p. 6 hours after MCAO) was 0.03 mg/kg, the “mean lesion volume versus control group” value ([2]; i.p. 6 hours after MCAO, analysis at 24 hours, all treated groups) was “lower mean than the control group” and the “inhibition of IL-1β-induced endogenous JNK activity” value [3] was “effectively inhibits JNK activity, even better than L-TAT-IB1(s)”.
